Experimental data from PubChem BioAssay (NCI).
Where “and” joins values, the source holds several entries; their conditions need not be identical. Identical values can stand only once.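 Compound exposure: 48 hours, 5 concentrations, 96-well plates. Here, GI50 denotes the concentration required for 50% inhibition of growth. TGI is the concentration that stops growth completely.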 Where a SMILES comes first, the peptide text is derived from it. Bridges are numbered along the chain shown (N, C = ends). [ ]: non-standard residue; d: D form. The star is where a group is joined. ξ: configuration not given here. ξDab(CH2SO3H) = NC(CCNCS(=O)(=O)O)C(=O)O; Heptanoyl(6-Me) = CC(C)CCCCC(=O)*; Dab = NCC[CH](N)C(=O)O

Experiments:
Assay in all cases: growth of human tumour cells (NCI), 48 h
[1] = system: CAKI-1 renal
[2] = system: UACC-257 melanoma
[3] = system: NCI-H226 lung
[4] = system: HCT-116 colon
[5] = system: IGROV1 ovarian
[6] = system: SNB-75 CNS
[7] = system: SF-539 CNS
[8] = system: A498 renal
[9] = system: OVCAR-5 ovarian
[10] = system: BT-549 breast

Row | SMILES | TGI [1] | TGI [2] | TGI [3] | TGI [4] | TGI [5] | TGI [6] | TGI [7] | TGI [8] | TGI [9] | TGI [10] | GI50 [1] [µM] | GI50 [2] [µM] | GI50 [3] [µM] | GI50 [4] | GI50 [5] | GI50 [6] | GI50 [7] [µM] | GI50 [8] [µM] | GI50 [9] [µM] | GI50 [10]
1 | COC(=O)C1=CO[C@@H](OC2OC(CO)C(O)C(O)C2O)[C@H]2[C@@H](C)[C@@H](O)[C@@H](O)[C@@H]12 (stereo not given in full) | > 100 µM | > 100 µM | > 100 µM | > 100 µM | > 100 µM | > 100 µM | > 100 µM | > 100 µM | > 100 µM | > 100 µM | – | – | – | – | – | – | – | – | – | –
2 | O=[N+]([O-])c1ccc(C2CC(c3ccccc3)=Nc3ccccc3S2)cc1 (stereo not given) | > 100 µM | > 100 µM | > 100 µM | 4.11 µM | > 100 µM | > 100 µM | > 100 µM | > 100 µM | > 100 µM | > 100 µM | > 100 | > 100 | > 100 | 1.98 µM | 13.3 µM | 8.55 µM | > 100 | 59.8 | > 100 | > 100 µM
3 | O=C([O][Hg][CH2]C1OCCOC1[CH2][Hg][O]C(=O)c1ccccc1)c1ccccc1 (stereo not given) | 3.12 µM | 3.4 µM | 47.3 µM | 8.37 µM | 26.9 µM | 29.5 µM | 29.7 µM | 34.8 µM | 36.7 µM | 20.4 µM | 1.74 | 1.89 | 22.5 | 4.21 µM | 10.1 µM | 16 µM | 13.3 | 20.3 | 22.3 | 8.22 µM
4 | N=N/C(=C\c1c(O)[nH]c2ccccc12)c1ccccc1 | > 100 µM | > 100 µM | 99.1 µM | > 59.3 µM | > 100 µM | 63.8 µM | 37.9 µM | 91.6 µM | > 100 µM | 62.3 µM | – | – | – | – | – | – | – | – | – | –
5 | CC(C)(C)[Si](C)(C)OC1[C@@H](O[Si](C)(C)C(C)(C)C)[C@@H](CNC(=O)NC(=O)CF)O[C@H]1n1cnc2c(NC(=O)Nc3ccccc3)ncnc21 (stereo not given in full) | > 50 µM | > 50 µM | > 50 µM | 20.5 µM | > 50 µM | > 50 µM | > 50 µM | 25.3 µM | > 50 µM | 42.5 µM | 27.3 | 20 | 5.5 | 5.21 µM | 22.5 µM | 8.45 µM | 14.5 | 8.92 | 15.9 | 12.2 µM
6 | COC(=O)C1=COC(C)C2CN3CCc4c([nH]c5cc(OC)c(OC)cc45)C3CC12 (stereo not given) | > 100 µM | > 100 µM | > 100 µM | > 100 µM | > 100 µM | > 100 µM | > 100 µM | > 100 µM | > 100 µM | > 100 µM and 61.6 µM | – | – | – | > 100 µM and 43.6 µM | > 100 µM and 45.7 µM | 38.7 µM and > 100 µM | – | – | – | > 100 µM and 18.5 µM
7 | CCC(C)C1NC(=O)C(CCNCS(=O)(=O)O)NC(=O)C(NC(=O)C(CCNCS(=O)(=O)O)NC(=O)C(NC(=O)C(CCNCS(=O)(=O)O)NC(=O)CCCCC(C)C)C(C)O)CCNC(=O)C(C(C)O)NC(=O)C(CCNCS(=O)(=O)O)NC(=O)C(CCNCS(=O)(=O)O)NC(=O)C(C(C)CC)NC1=O (stereo not given) ({Heptanoyl(6-Me)}-[ξDab(CH2SO3H)]T[ξDab(CH2SO3H)][Dab][ξDab(CH2SO3H)]II[ξDab(CH2SO3H)][ξDab(CH2SO3H)]T; lactam 4-C; configuration not given here) | > 25 µM | > 25 µM | > 25 µM | > 25 µM | > 25 µM | > 25 µM | > 25 µM | > 25 µM | > 25 µM | > 25 µM | > 25 | 11.7 | 8.25 | 7.33 µM | 13.1 µM | 1.58 µM | 7.16 | 7.07 | 24 | 6.27 µM
8 | COc1ccc2c(c1)oc(=O)c1cc(OC)ccc12 | > 100 µM | > 100 µM | > 100 µM | > 100 µM | > 100 µM | > 100 µM | > 100 µM | 99 µM | > 100 µM | > 100 µM | > 100 | > 100 | > 100 | > 100 µM | > 100 µM | > 100 µM | > 100 | 1.56 | > 100 | > 100 µM
9 | CC1=CCCC2C1(C)CCC(C)C2(C)Cc1cc(O)ccc1O (stereo not given) | 27.2 µM and 22.5 µM | 29.1 µM and 26.4 µM | 27.2 µM and 15.8 µM | 24.8 µM and 15.7 µM | 16.6 µM and 21.6 µM | 20.5 µM and 21.7 µM | 26.3 µM and 23.6 µM | 32.9 µM and 30.3 µM | 28.7 µM and 38.9 µM | 16.2 µM | 14.1 | 9.99 | 5.5 | 9.85 µM | 4.22 µM | – | 11.1 | – | – | –
10 | Cc1nc(-c2nc(-c3ccc(OC(F)(F)F)cc3)no2)nn1Cc1cccc(N2CCC(S(C)(=O)=O)CC2)c1 | 29.8 µM | > 86.6 µM | 41.4 µM | > 100 µM | > 100 µM | 48.5 µM | > 100 µM | 17.1 µM | > 100 µM | 38.6 µM | 3.28 | 0.286 | 0.931 | < 0.01 µM | > 26.5 µM | 5.13 µM | > 40.4 | < 0.0198 | > 65.8 | 1.07 µM
11 | CONC(C)=O | > 100 µM | > 100 µM | > 100 µM | > 100 µM | > 100 µM | > 100 µM | > 100 µM | > 100 µM | > 100 µM | > 100 µM | – | – | – | – | – | – | – | – | – | –
12 | O=c1[nH]c(=O)c2cc3cc(C4CC(O)C(CO)O4)ccc3cc2[nH]1 (stereo not given) | > 100 µM | > 100 µM | > 100 µM | > 100 µM | > 100 µM | > 100 µM | > 100 µM | > 100 µM | > 100 µM | > 100 µM | > 100 | > 100 | > 100 | > 100 µM | 1.7 µM | 34.5 µM | > 100 | > 100 | > 100 | > 100 µM
13 | N#Cc1c(N2CCOCC2)nc(=S)[nH]c1-c1ccccc1 | > 100 µM | > 100 µM | > 100 µM | > 100 µM | > 100 µM | > 100 µM | > 100 µM | 26.8 µM | > 100 µM | > 100 µM | 9.29 | 49.8 | 14.3 | 42.4 µM | 3.15 µM | 6.12 µM | 13.2 | 3.66 | 18.3 | 8.78 µM
14 | O=[N+]([O-])c1ccc(C2=Nn3c(nnc3-c3ccc(Cl)cc3)SC2)o1 | 18.4 µM | 16.9 µM | 37.8 µM | 15.1 µM | 17.1 µM | 32 µM | 20.5 µM | 31.3 µM | 33.8 µM | 23.9 µM | – | – | – | – | – | – | – | – | – | –
15 | O=C(O)C(C(=O)O)P(=S)(S)c1ccccc1 (stereo not given) | > 100 µM | > 100 µM | > 100 µM | > 100 µM | > 100 µM | > 100 µM | > 100 µM | > 100 µM | > 100 µM | > 100 µM | – | – | – | – | – | – | – | – | – | –
16 | C[C@@H](NC(=O)/C(C#N)=C/c1ccc([N+](=O)[O-])cc1)c1ccccc1 | 6.47 µM | 7.09 µM | 3.69 µM | 3.79 µM | 8.13 µM | 8.33 µM | 3.37 µM | 8.49 µM | 4.06 µM | 3.55 µM | 2.37 | 2.38 | 1.78 | 1.89 µM | 2.9 µM | 2.19 µM | 1.7 | 4.25 | 1.96 | 1.75 µM
